{"source": "patent US7741327B2", "about": "(Hoffmann-La Roche Inc., priority 2008, dated 2010)"}
{"target": "T1, Recombinant human liver GK1 (GST-GK) (Homo sapiens, UniProt P35557)", "T1 construct": "made in house; host or cells: E. coli", "T1 sequence (P35557 1-466 isoform P35557-2)": "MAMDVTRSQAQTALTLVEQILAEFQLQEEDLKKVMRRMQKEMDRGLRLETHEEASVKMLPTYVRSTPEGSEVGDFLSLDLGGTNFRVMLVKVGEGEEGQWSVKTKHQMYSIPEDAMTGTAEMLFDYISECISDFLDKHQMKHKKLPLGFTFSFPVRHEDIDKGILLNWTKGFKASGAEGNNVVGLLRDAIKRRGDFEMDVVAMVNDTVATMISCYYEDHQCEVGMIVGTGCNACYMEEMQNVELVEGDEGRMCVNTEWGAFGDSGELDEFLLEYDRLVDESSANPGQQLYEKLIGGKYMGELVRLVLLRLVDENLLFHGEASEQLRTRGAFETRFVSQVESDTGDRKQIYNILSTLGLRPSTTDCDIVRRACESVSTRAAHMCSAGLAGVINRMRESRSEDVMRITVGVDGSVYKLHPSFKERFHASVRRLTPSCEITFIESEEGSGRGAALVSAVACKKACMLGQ", "assay": "In vitro glucokinase activity (G6PDH-coupled NADH assay)", "type": "biochemical", "details": "30° C., 5 mM D-glucose, 10% DMSO", "method_in_brief": "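Activation measured as the rate of OD340 rise from G6PDH-coupled NADH production, relative to 10% DMSO control, reported as SC1.5 (concentration for 50% activity increase). Conditions: 30° C, pH 7.1 Hepes, 5 mM glucose, 1 mM ATP, purified recombinant GST-human GK1, compound preincubated 10 min before enzyme addition.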", "units": {"SC1.5 (concentration of activator that produced a 50% increase in the activity of GK)": "µM"}}
{"smiles": "CC1(C)OC[C@@H](Cn2ccc(NC(=O)[C@H](Cc3ccccc3Cl)N3CC(Oc4ccccc4Cl)=CC3=O)n2)O1", "note": "[Example 188, (S)-2-[4-(2-chloro-phenoxy)-2-oxo-2,5-dihydro-pyrrol-1-yl]-N-[1-((R)-2,2-dimethyl-[1,3]dioxolan-4-yl-methyl)-1H-pyrazol-3-yl]-3-(2-chlorophenyl)-propionamide]", "SC1.5 (concentration of activator that produced a 50% increase in the activity of GK)": 1.629}
{"smiles": "CC(C)C[C@@H](C(=O)Nc1ccn(C[C@@H]2COC(C)(C)O2)n1)N1CC(Oc2ccccc2Cl)=CC1=O", "note": "[Example 65]", "SC1.5 (concentration of activator that produced a 50% increase in the activity of GK)": 0.527}
{"smiles": "CC(C)(O)Cn1ccc(NC(=O)[C@H](CC2CCCCC2)N2CC(Oc3ccccc3)=CC2=O)n1", "note": "[Example 213, (S)-3-cyclohexyl-N-[1-(2-hydroxy-2-methyl-propyl)-1H-pyrazol-3-yl]-2-(2-oxo-4-phenoxy-2,5-dihydro-pyrrol-1-yl)-propionamide]", "SC1.5 (concentration of activator that produced a 50% increase in the activity of GK)": 0.028}
{"smiles": "CC(C)(O)Cn1ccc(NC(=O)[C@H](CC2CCCCO2)N2CC(Oc3cccc(Cl)c3Cl)=CC2=O)n1", "note": "(stereo partly drawn) [Example 92, (S)-2-[4-(2,3-Dichloro-phenoxy)-2-oxo-2,5-dihydro-pyrrol-1-yl]-N-[1-(2-hydroxy-2-methyl-propyl)-1H-pyrazol-3-yl]-3-(tetrahydro-pyran-2-yl)-propionamide]", "SC1.5 (concentration of activator that produced a 50% increase in the activity of GK)": 0.161}
{"smiles": "CCOc1ccccc1OC1=CC(=O)N([C@@H](CC(C)C)C(=O)Nc2ccn(C[C@@H](O)CO)n2)C1.Cl", "note": "[Example 84, (S)-2-[4-(2-Ethoxy-phenoxy)-2-oxo-2,5-dihydro-pyrrol-1-yl]-4-methyl-pentanoic acid [1-((R)-2,3-dihydroxy-propyl)-1H-pyrazol-3-yl]-amide Hydrochloride]", "SC1.5 (concentration of activator that produced a 50% increase in the activity of GK)": 1.312}
{"smiles": "CC(C)(O)Cn1ccc(NC(=O)[C@@H](C[C@H]2C[C@H](C)C2)N2CC(Oc3ccccc3Cl)=CC2=O)n1", "note": "(single isomer, unassigned) [Example 216]", "SC1.5 (concentration of activator that produced a 50% increase in the activity of GK)": 2.715}
{"smiles": "CC(C)(O)Cn1ccc(NC(=O)[C@H](CC2CCCCC2)N2CC(Oc3c(F)cccc3F)=CC2=O)n1", "note": "[Example 36, (S)-3-Cyclohexyl-2-[4-(2,6-difluoro-phenoxy)-2-oxo-2,5-dihydro-pyrrol-1-yl]-N-[1-(2-hydroxy-2-methyl-propyl)-1H-pyrazol-3-yl]-propionamide]", "SC1.5 (concentration of activator that produced a 50% increase in the activity of GK)": 0.028}
{"smiles": "CC(C)C[C@@H](C(=O)Nc1ccn(CC(C)(C)O)n1)N1CC(Oc2cccc(O)c2F)=CC1=O", "note": "[Example 126, (S)-2-[4-(2-Fluoro-3-hydroxy-phenoxy)-2-oxo-2,5-dihydro-pyrrol-1-yl]-4-methyl-pentanoic acid [1-(2-hydroxy-2-methyl-propyl)-1H-pyrazol-3-yl]-amide]", "SC1.5 (concentration of activator that produced a 50% increase in the activity of GK)": 0.182}
{"smiles": "CC(C)C[C@@H](C(=O)Nc1ccn(C[C@H]2COC(C)(C)O2)n1)N1CC(Oc2ccccc2Cl)=CC1=O", "note": "[Example 174, (S)-2-[4-(2-Chloro-phenoxy)-2-oxo-2,5-dihydro-pyrrol-1-yl]-4-methyl-pentanoic acid [1-((S)-2,2-dimethyl-[1,3]dioxolan-4-yl-methyl)-1H-pyrazol-3-yl]-amide]", "SC1.5 (concentration of activator that produced a 50% increase in the activity of GK)": 0.133}
{"smiles": "CCC[C@@H](C(=O)Nc1ccn(C[C@@H](O)CO)n1)N1CC(Oc2c(F)cccc2F)=CC1=O", "note": "[Example 157, (S)-2-[4-(2,6-Difluoro-phenoxy)-2-oxo-2,5-dihydro-pyrrol-1-yl]-pentanoic acid [1-((R)-2,3-dihydroxy-propyl)-1H-pyrazol-3-yl]-amide]", "SC1.5 (concentration of activator that produced a 50% increase in the activity of GK)": 1.849}
{"smiles": "C=Cc1cccc(OC2=CC(=O)N([C@@H](CC(C)C)C(=O)Nc3ccn(C[C@@H](O)CO)n3)C2)c1F", "note": "[Example 145, (S)-2-[4-(2-Fluoro-3-vinyl-phenoxy)-2-oxo-2,5-dihydro-pyrrol-1-yl]-4-methyl-pentanoic acid [1-((R)-2,3-dihydroxy-propyl)-1H-pyrazol-3-yl]-amide]", "SC1.5 (concentration of activator that produced a 50% increase in the activity of GK)": 0.134}
{"smiles": "CC(C)C[C@@H](C(=O)Nc1ncc(Cl)s1)N1CC(Oc2ccccc2Cl)=CC1=O", "note": "[Example 190, (S)-2-[4-(2-chloro-phenoxy)-2-oxo-2,5-dihydro-pyrrol-1-yl]-4-methyl-pentanoic acid (5-chloro-thiazol-2-yl)-amide]", "SC1.5 (concentration of activator that produced a 50% increase in the activity of GK)": 0.63}
{"smiles": "CC(C)C[C@@H](C(=O)Nc1ccn(C[C@@H](O)CO)n1)N1CC(Oc2ccccc2Br)=CC1=O", "note": "[Example 137, (S)-2-[4-(2-Bromo-phenoxy)-2-oxo-2,5-dihydro-pyrrol-1-yl]-4-methyl-pentanoic acid [1-((R)-2,3-dihydroxy-propyl)-1H-pyrazol-3-yl]-amide]", "SC1.5 (concentration of activator that produced a 50% increase in the activity of GK)": 0.26}
{"smiles": "CC(C)C[C@@H](C(=O)Nc1ccn(CC(C)(C)O)n1)N1CC(Oc2cccc(C#N)c2)=CC1=O", "note": "[Example 138, (S)-2-[4-(3-Cyano-phenoxy)-2-oxo-2,5-dihydro-pyrrol-1-yl]-4-methyl-pentanoic acid [1-(2-hydroxy-2-methyl-propyl)-1H-pyrazol-3-yl]-amide]", "SC1.5 (concentration of activator that produced a 50% increase in the activity of GK)": 3.733}
{"smiles": "CC(C)(O)Cn1ccc(NC(=O)C(CC2C3CCC2CC3)N2CC(Oc3ccccc3Cl)=CC2=O)n1", "note": "(stereo not drawn) [Example 229, 3-bicyclo[2.2.1]hept-7-yl-2-[4-(2-chloro-phenoxy)-2-oxo-2,5-dihydro-pyrrol-1-yl]-N-[1-(2-hydroxy-2-methyl-propyl)-1H-pyrazol-3-yl]-propionamide]", "SC1.5 (concentration of activator that produced a 50% increase in the activity of GK)": 1.109}
{"smiles": "Cn1ccc(NC(=O)[C@H](CC2CCCCC2)N2CC(Oc3c(F)cccc3Cl)=CC2=O)n1", "note": "[Example 68, (S)-2-[4-(2-Chloro-6-fluoro-phenoxy)-2-oxo-2,5-dihydro-pyrrol-1-yl]-3-cyclohexyl-N-(1-methyl-1H-pyrazol-3-yl)-propionamide]", "SC1.5 (concentration of activator that produced a 50% increase in the activity of GK)": 0.055}
{"smiles": "CCOc1cccc(OC2=CC(=O)N([C@@H](CC(C)C)C(=O)Nc3cnc([C@H]4COC(C)(C)O4)cn3)C2)c1F", "note": "[Example 150, (S)-2-[4-(3-Ethoxy-2-fluoro-phenoxy)-2-oxo-2,5-dihydro-pyrrol-1-yl]-4-methyl-pentanoic acid [5-((S)-2,2-dimethyl-[1,3]dioxolan-4-yl)-pyrazin-2-yl]-amide]", "SC1.5 (concentration of activator that produced a 50% increase in the activity of GK)": 0.2}
{"smiles": "CC(C)C[C@@H](C(=O)Nc1ccn(C[C@@H](O)CO)n1)N1CC(Oc2cccc(C3CC3)c2F)=CC1=O", "note": "[Example 147, (S)-2-[4-(3-Cyclopropyl-2-fluoro-phenoxy)-2-oxo-2,5-dihydro-pyrrol-1-yl]-4-methyl-pentanoic acid [1-((R)-2,3-dihydroxy-propyl)-1H-pyrazol-3-yl]-amide]", "SC1.5 (concentration of activator that produced a 50% increase in the activity of GK)": 0.105}
{"smiles": "CC(C)C[C@@H](C(=O)Nc1ccn(C[C@@H](O)CO)n1)N1CC(Oc2ccccc2F)=CC1=O", "note": "[Example 166, (S)-2-[4-(2-Fluoro-phenoxy)-2-oxo-2,5-dihydro-pyrrol-1-yl]-4-methyl-pentanoic acid [1-((R)-2,3-dihydroxy-propyl)-1H-pyrazol-3-yl]-amide]", "SC1.5 (concentration of activator that produced a 50% increase in the activity of GK)": 0.239}
{"smiles": "COCC[C@@H](C(=O)Nc1ccn(C[C@@H](O)CO)n1)N1CC(Oc2ccccc2Cl)=CC1=O", "note": "[Example 230, (S)-2-[4-(2-Chloro-phenoxy)-2-oxo-2,5-dihydro-pyrrol-1-yl]-N-[1-((R)-2,3-dihydroxy-propyl)-1H-pyrazol-3-yl]-4-methoxy-butyramide]", "SC1.5 (concentration of activator that produced a 50% increase in the activity of GK)": 6.139}
{"smiles": "COc1cccc(OC2=CC(=O)N([C@@H](CC3CCCC3)C(=O)Nc3ccn(CC(C)(C)O)n3)C2)c1Cl", "note": "[Example 54, (S)-2-[4-(2-chloro-3-methoxy-phenoxy)-2-oxo-2,5-dihydro-pyrrol-1-yl]-3-cyclopentyl-N-[1-(2-hydroxy-2-methyl-propyl)-1H-pyrazol-3-yl]-propionamide]", "SC1.5 (concentration of activator that produced a 50% increase in the activity of GK)": 0.008}
{"smiles": "CC(C)(C)CCC(C(=O)Nc1ccn(C[C@@H](O)CO)n1)N1CC(Oc2ccccc2Cl)=CC1=O", "note": "(stereo partly drawn) [Example 227, 2-[4-(2-Chloro-phenoxy)-2-oxo-2,5-dihydro-pyrrol-1-yl]-5,5-dimethyl-hexanoic acid [1-((R)-2,3-dihydroxy-propyl)-1H-pyrazol-3-yl]amide]", "SC1.5 (concentration of activator that produced a 50% increase in the activity of GK)": 16.668}
{"smiles": "COc1ccc(F)c(OC2=CC(=O)N([C@@H](CC(C)C)C(=O)Nc3ccn(C[C@@H](O)CO)n3)C2)c1F", "note": "[Example 119, (S)-2-[4-(2,6-Difluoro-3-methoxy-phenoxy)-2-oxo-2,5-dihydro-pyrrol-1-yl]-4-methyl-pentanoic acid [1-((R)-2,3-dihydroxy-propyl)-1H-pyrazol-3-yl]-amide]", "SC1.5 (concentration of activator that produced a 50% increase in the activity of GK)": 0.072}
{"smiles": "CC(F)(F)C[C@@H](C(=O)Nc1ccn(C[C@@H](O)CO)n1)N1CC(Oc2ccccc2Cl)=CC1=O", "note": "[Example 218, (S)-2-[4-(2-Chloro-phenoxy)-2-oxo-2,5-dihydro-pyrrol-1-yl]-4,4-difluoro-pentanoic acid [1-((R)-2,3-dihydroxy-propyl)-1H-pyrazol-3-yl]-amide]", "SC1.5 (concentration of activator that produced a 50% increase in the activity of GK)": 4.538}
